Patent US4338451A, “5-Hydroxymethyl oxazolidinones” (Delalande S.A., priority 1977, dated 1982)

Legend:
[1] = tested on: ptosis observed one hour after an intravenous injection (2 mg/kg) of reserpine; assay: Test B: antagonism of the ptosis caused by reserpine in mice; type: in vivo; conditions: Mus musculus, po, 1 h, p.o., reserpine 2 mg/kg intravenous, read-out: Test B ED 50
Method: Antagonism with respect to the ptosis observed one hour after an intravenous injection (2 mg/kg) of reserpine given to mice, following the protocol described by C.

[2] = tested on: generalized trembling caused by an interperitoneal injection (200 mg/kg) of dl-5-hydroxytryptophane; assay: Test A: potentiation in mice of generalized trembling caused by dl-5-hydroxytryptophane; type: in vivo; conditions: Mus musculus, po, dl-5-hydroxytryptophane 200 mg/kg intraperitoneal, read-out: Test A ED 50
Method: Potentiation in mice of generalized trembling caused by an interperitoneal injection (200 mg/kg) of dl-5-hydroxytryptophane, following the protocol described by C. GOURET and G. RAYNAUD in J. Pharmacol. (Paris), (1974) 5, 231.

[3] = tested on: pontogeniculo-occipital points (P.G.O.) caused by an intravenous injection (0.5 mg/kg) of reserpine; assay: Test C: reduction in the density of pontogeniculo-occipital points (P.G.O.) caused by reserpine in cats; type: in vivo; conditions: Felis catus, ip, reserpine 0.5 mg/kg intravenous, read-out: Test C ED 50
Method: Reduction in the density of pontogeniculo-occipital points (P.G.O.) caused by an intravenous injection (0.5 mg/kg) of reserpine given to cats, following the protocol described by A. COSTON and C. GOURET in J. Pharmacol. (Paris) (1976), 7, 409.

Acute toxicity in mice = conditions: mouse, in vivo, po

SMILES	ED50 [1] [mg/kg]	ED50 [2] [mg/kg]	ED50 [3] [mg/kg]	also measured
O=C1OC(CO)CN1c1ccc(OCc2cnccn2)cc1 (stereo not drawn) [770 845]	12.5	6.25	–	–
N#Cc1cccc(COc2ccc(N3CC(CO)OC3=O)cc2)c1 (stereo not drawn) [770 222]	1.2	2.8	5.2	mortality (Acute toxicity in mice; 1000 mg/kg): 0%
CC(C)CCOc1ccc(N2CC(CO)OC2=O)cc1 (stereo not drawn) [771 082]	0.7	1.3	–	LD50 (Acute toxicity in mice): > 2000 mg/kg
C=CCCCOc1ccc(N2CC(CO)OC2=O)cc1 (stereo not drawn) [770 196]	15	20	16	–
O=C1OC(CO)CN1c1ccc(OCc2ccc([N+](=O)[O-])c(Cl)c2)cc1 (stereo not drawn) [770 790]	25	50	–	–
CC(COc1ccc(N2CC(CO)OC2=O)cc1)=NO (stereo not drawn) [770 126, oxime of 3-(p-acetylmethyloxyphenyl) 5-hydroxymethyl 2-oxazolidinone]	11	8	16.5	–
O=C1OC(CO)CN1c1ccc(OCC2SCCCS2)cc1 (stereo not drawn) [780 077]	44	25	–	–
O=C1OC(CO)CN1c1ccc(OCc2ccsc2)cc1 (stereo not drawn) [771 067]	12.5	7.5	–	–
O=C1OC(CO)CN1c1ccc(OCc2cccc(Br)c2)cc1 (stereo not drawn) [760 557]	3.3	7.3	110	mortality (Acute toxicity in mice; 1000 mg/kg): 0%
O=C1OC(CO)CN1c1ccc(OCc2cccc([N+](=O)[O-])c2)cc1 (stereo not drawn) [770 234]	0.7	1.5	9	mortality (Acute toxicity in mice; 1000 mg/kg): 0%
O=C1OC(CO)CN1c1ccc(OCC2CCCOC2)cc1 (stereo not drawn) [780 034]	6.2	4.4	–	–
Cc1cccc(N2CC(CO)OC2=O)c1 (stereo not drawn) [TOLOXATONE, reference compound]	50	60	28	–
O=C1OC(CO)CN1c1ccc(OCc2ccoc2)cc1 (stereo not drawn) [770 979]	35	14	–	–
O=C1OC(CO)CN1c1ccc(OCc2ccc(F)c(Cl)c2)cc1 (stereo not drawn) [770 572]	3.12	6.3	8.5	–
O=C1OC(CO)CN1c1ccc(OCC2CCC2)cc1 (stereo not drawn) [770 788]	12.5	6.25	–	–
CC(=O)CSc1ccc(N2CC(CO)OC2=O)cc1 (stereo not drawn) [770 501, 3-(p-acetylmethylthiophenyl) 5-hydroxymethyl 2-oxazolidinone]	25	22	–	–
O=C1OC(CO)CN1c1ccc(OCC2OCCO2)cc1 (stereo not drawn) [770 962]	50	26	–	–
CCCCCNc1ccc(N2CC(CO)OC2=O)cc1 (stereo not drawn) [770 328, 3-p-n pentylaminophenyl 5-hydroxymethyl 2-oxazolidinone]	35	25	–	–
CC(C)C(=O)COc1ccc(N2CC(CO)OC2=O)cc1 (stereo not drawn) [770 154]	50	50	20	–
O=C1OC(CO)CN1c1ccc(OCC2CC2)cc1 (stereo not drawn) [770 388]	12.5	9	4.5	–
CCC(=O)c1ccc(N2CC(CO)OC2=O)cc1 (stereo not drawn) [770 365]	25	29	–	–
CCCCCSc1ccc(N2CC(CO)OC2=O)cc1 (stereo not drawn) [770 180]	45	35	45	–

SMILES	ED50 [1] [mg/kg]	ED50 [2] [mg/kg]	ED50 [3] [mg/kg]	also measured
O=C1OC(CO)CN1c1ccc(OCC2CCCCO2)cc1 (stereo not drawn) [770 900]	25	50	–	–
N#Cc1ccccc1COc1ccc(N2CC(CO)OC2=O)cc1 (stereo not drawn) [770 318]	16	25	–	–
CCCC(=O)c1ccc(N2CC(CO)OC2=O)cc1 (stereo not drawn) [770 423]	25	35	5	–
O=C1OC(CO)CN1c1ccc(OCc2ccc(Cl)c(Cl)c2)cc1 (stereo not drawn) [770 268]	8.5	7	–	–
O=C1OC(CO)CN1c1ccc(OCC2CCOCC2)cc1 (stereo not drawn) [771 301]	3	1.9	–	LD50 (Acute toxicity in mice): > 2000 mg/kg
O=C1OC(CO)CN1c1ccc(OCCC2CCCCC2)cc1 (stereo not drawn) [770 949]	16	10	–	–
COCOc1ccc(N2CC(CO)OC2=O)cc1 (stereo not drawn) [760 904]	50	50	8.5	–
CC(C)(C)COc1ccc(N2CC(CO)OC2=O)cc1 (stereo not drawn) [771 249]	50	22.5	–	–
O=C1OC(CO)CN1c1ccc(OCC2OCCS2)cc1 (stereo not drawn) [780 112]	5.2	5	–	–
O=C1OC(CO)CN1c1ccc(OCCN2CCOCC2)cc1 (stereo not drawn) [750 601]	8	70	31	–
N#Cc1cc(COc2ccc(N3CC(CO)OC3=O)cc2)ccc1F (stereo not drawn) [770 789]	2	3	–	–
Nc1cccc(COc2ccc(N3CC(CO)OC3=O)cc2)c1 (stereo not drawn) [771 240]	50	35	–	–
O=C1OC(CO)CN1c1ccc(CCc2cccc(Cl)c2)cc1 (stereo not drawn) [771 181]	6.25	6.25	–	–
O=C1OC(CO)CN1c1ccc(OCc2cccs2)cc1 (stereo not drawn) [770 673]	35	16	8	–
O=C1OC(CO)CN1c1ccc(OCc2cccnc2)cc1 (stereo not drawn) [770 221]	3.12	11.8	15	–
CC(=O)Nc1ccc(COc2ccc(N3CC(CO)OC3=O)cc2)cc1 (stereo not drawn) [770 569]	2.5	5	6	–
O=C1OC(CO)CN1c1ccc(OCc2ccc(F)c([N+](=O)[O-])c2)cc1 (stereo not drawn) [770 955]	7	13	–	mortality (Acute toxicity in mice; 2000 mg/kg): 17%
N#Cc1cc(COc2ccc(N3CC(CO)OC3=O)cc2)cc([N+](=O)[O-])c1 (stereo not drawn) [771 125]	1.56	3.12	–	–
O=C1OC(CO)CN1c1ccc(OCc2ccc(Cl)cc2Cl)cc1 (stereo not drawn) [770 354]	30	25	30	–
O=C1OC(CO)CN1c1ccc(OCc2ccncc2)cc1 (stereo not drawn) [770 299]	12.5	20	–	–
COC(=O)Nc1ccc(COc2ccc(N3CC(CO)OC3=O)cc2)cc1 (stereo not drawn) [780 182]	25	40	–	–
O=C1OC(CO)CN1c1ccc(COc2ccccc2)cc1 (stereo not drawn) [770 696]	20	15	–	–

SMILES	ED50 [1] [mg/kg]	ED50 [2] [mg/kg]	ED50 [3] [mg/kg]	also measured
O=C1OC(CO)CN1c1ccc(COc2cccc([N+](=O)[O-])c2)cc1 (stereo not drawn) [771 263, 3-para (metanitrophenoxymethyl) phenyl 5-hydroxymethyl 2-oxazolidinone]	3.1	4	–	–
O=C1OC(CO)CN1c1ccc(OCC2=CCC=CC2)cc1 (stereo not drawn) [770 984]	25	10	–	–
O=C1OC(CO)CN1c1ccc(C(F)(F)F)cc1 (stereo not drawn) [770 152, 5-hydroxymethyl 3-p-trifluoromethylphenyl 2-oxazolidinone]	25	20	15	–
O=C1OC(CO)CN1c1ccc(OCC2SCCS2)cc1 (stereo not drawn) [780 080, 3-para[(1,3-dithiolan-2-yl)-methoxy]phenyl 5-hydroxymethyl 2-oxazolidinone]	50	50	–	–
O=C1OC(CO)CN1c1ccc(OCCC2CCCC2)cc1 (stereo not drawn) [771 245]	2	1.5	–	LD50 (Acute toxicity in mice): > 2000 mg/kg
O=C1OC(CO)CN1c1ccc(OCc2ccccn2)cc1 (stereo not drawn) [770 298]	12.5	55	–	–
O=C1OC(CO)CN1c1ccc(OCc2cc(Cl)cc(Cl)c2)cc1 (stereo not drawn) [770 416]	10	6.2	3	–
CCC(=O)Nc1ccc(COc2ccc(N3CC(CO)OC3=O)cc2)cc1 (stereo not drawn) [780 443]	12.5	3.7	–	–
CC(=O)COc1ccc(N2CC(CO)OC2=O)cc1 (stereo not drawn) [760 652, 3-(p-acetylmethyloxy) 5-hydroxymethyl 2-oxazolidinone]	–	–	–	mortality (Acute toxicity in mice; mice, dose administered 1000 mg/kg/p.o.): 0%
O=C1OC(CO)CN1c1ccc(OCc2ccc(Cl)c([N+](=O)[O-])c2)cc1 (stereo not drawn) [770 672]	19	25	–	–
O=C1OC(CO)CN1c1ccc(OCC2CCCCCC2)cc1 (stereo not drawn) [780 030]	5.3	3	–	–
O=C1OC(CO)CN1c1ccc(OCc2cc(Cl)cc([N+](=O)[O-])c2)cc1 (stereo not drawn) [771 199]	0.8	1.1	–	–
O=C1OC(CO)CN1c1ccc(OCC2CCCC2)cc1 (stereo not drawn) [770 467]	1.2	2.8	3	–
N#CCOc1cccc(N2CC(CO)OC2=O)c1 (stereo not drawn) [770 231, 5-hydroxymethyl 3-m-cyanomethyloxyphenyl 2-oxazolidinone]	50	40	14	–
CN(C)c1cccc(N2CC(CO)OC2=O)c1 (stereo not drawn) [770 155]	22.5	50	35	–
CC(C)(C)CCOc1ccc(N2CC(CO)OC2=O)cc1 (stereo not drawn) [771 246]	23	17	–	–
O=C1OC(CO)CN1c1ccc(OCC2=CCCC2)cc1 (stereo not drawn) [770 466]	6.2	9.6	9	–
CC1(COc2ccc(N3CC(CO)OC3=O)cc2)CCCC1 (stereo not drawn) [780 076]	7	2.3	–	–
CC(=O)COc1cccc(N2CC(CO)OC2=O)c1 (stereo not drawn) [770 230]	6.25	–	16	–
CCC(CC)COc1ccc(N2CC(CO)OC2=O)cc1 (stereo not drawn) [771 197]	16	25	–	–
O=C1OC(CO)CN1c1ccc(OCc2cccc(I)c2)cc1 (stereo not drawn) [771 321]	20	25	–	–
